16 molecules from patent publication US20230391760A1, “HETEROCYCLIC GLP-1 AGONISTS” (Gasherbrum Bio, Inc., priority 2020, published 2023) can be followed below.

SMILES strings stand for the structures.

In this assay the target is GLP-1 Receptor (Homo sapiens, UniProt P43220). In words: GLP-1R agonist cAMP stimulation assay (HEK293/GLP1R/CRE-LUC cells, cAMP dynamic 2 Kit). In kind it is cell-based. The following applies: HEK293/CRE-Luc cell line stably expressing the GLP-1 Receptor, 30 min at 37° C. Put shortly:
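cAMP measured by HTRF competition (d2-labelled cAMP with cryptate antibody, 1 h, room temperature, protected from light). Before that, GLP1R/CRE-Luc HEK293 cells (1000/well) were exposed for 30 min at 37 °C to half-log compound dilutions in DPBS containing IBMX 0.5 mM and BSA 0.1%.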

Sequence of GLP-1 Receptor (P43220 24-463, species assumed): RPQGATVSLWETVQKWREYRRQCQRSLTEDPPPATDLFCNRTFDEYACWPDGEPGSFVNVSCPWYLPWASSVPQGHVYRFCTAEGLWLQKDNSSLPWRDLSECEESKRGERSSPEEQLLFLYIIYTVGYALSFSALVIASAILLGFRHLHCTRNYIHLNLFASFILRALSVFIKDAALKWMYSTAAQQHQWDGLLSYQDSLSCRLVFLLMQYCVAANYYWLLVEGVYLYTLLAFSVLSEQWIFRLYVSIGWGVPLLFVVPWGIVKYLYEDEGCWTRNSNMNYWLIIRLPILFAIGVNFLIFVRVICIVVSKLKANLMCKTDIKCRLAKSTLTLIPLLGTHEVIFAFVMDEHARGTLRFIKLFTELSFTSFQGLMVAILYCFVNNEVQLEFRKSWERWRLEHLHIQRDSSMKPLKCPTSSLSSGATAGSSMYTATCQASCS

`CO[C@@H](C)Cn1c(CN2CCC(c3cccc4c3OC(C)(c3ccc(Cl)cn3)O4)CC2)nc2cc(-c3nnc(C(F)(F)F)[nH]3)ncc21` (stereo partly drawn) [Compound 445a, 5-chloro-2-{4-[1-({3-[(2S)-2-methoxypropyl]-6-[5-(trifluoromethyl)-4H-1,2,4-triazol-3-yl]-3H-imidazo[4,5-c]pyridin-2-yl}methyl)piperidin-4-yl]-2-methyl-2H-1,3-benzodioxol-2-yl}pyridine] displayed an EC50 of 2 nM. To `C[C@]1(c2ccc(Cl)cc2F)Oc2cccc(C3CCN(Cc4nc5cc(-c6nnc[nH]6)ncc5n4C[C@@H]4CCO4)CC3)c2O1` [Compound 440a, 4-[(2S)-2-(4-chloro-2-fluorophenyl)-2-methyl-2H-1,3-benzodioxol-4-yl]-1-[(3-{[(2S)-oxetan-2-yl]methyl}-6-(4H-1,2,4-triazol-3-yl)-3H-imidazo[4,5-c]pyridin-2-yl)methyl]piperidine] belongs 0.04 nM; to `C[C@]1(c2ccc(Cl)cc2F)Oc2cccc(C3CCN(Cc4nc5cc(-c6nnc(C7CC7)[nH]6)ccc5n4C[C@@H]4CCO4)CC3)c2O1` [Compound 283a, 2-({4-[(2S)-2-(4-chloro-2-fluorophenyl)-2-methyl-2H-1,3-benzodioxol-4-yl]piperidin-1-yl}methyl)-5-(5-cyclopropyl-4H-1,2,4-triazol-3-yl)-1-{[(2S)-oxetan-2-yl]methyl}-1H-1,3-benzodiazole], 0.1 nM. The figure for `O=c1[nH]c(-c2cc3nc(CN4CCN(c5ccc(F)c(OCc6ccc(Cl)cc6F)c5)CC4)n(C[C@@H]4CCO4)c3cn2)no1` [Compound 439a, 3-{2-[(4-{3-[(4-chloro-2-fluorophenyl)methoxy]-4-fluorophenyl}piperazin-1-yl)methyl]-3-{[(2S)-oxetan-2-yl]methyl}-3H-imidazo[4,5-c]pyridin-6-yl}-4,5-dihydro-1,2,4-oxadiazol-5-one] is 2.3 nM. Molecule `CCC(=O)Nc1ccc2c(c1)nc(CN1CCC(c3cccc(OCc4ccc(Cl)cc4F)n3)CC1)n2C[C@@H]1CCO1` [Compound 102a, (S)—N-(2-((4-(6-((4-chloro-2-fluorobenzyl)oxy)pyridin-2-yl)piperidin-1-yl)methyl)-1-(oxetan-2-ylmethyl)-1H-benzo[d]imidazol-5-yl)propionamide] returned an EC50 of 0.539 nM. The figure for `CO[C@@H](C)Cn1c(CN2CCC(c3cccc4c3O[C@@](C)(c3ccc(Cl)cc3F)O4)CC2)nc2cc(-c3noc(=O)[nH]3)ncc21` [Compound 421a, 3-[2-({4-[(2S)-2-(4-chloro-2-fluorophenyl)-2-methyl-2H-1,3-benzodioxol-4-yl]piperidin-1-yl}methyl)-3-[(2S)-2-methoxypropyl]-3H-imidazo[4,5-c]pyridin-6-yl]-4,5-dihydro-1,2,4-oxadiazol-5-one] is 0.34 nM; for `Cn1nc(-c2ccc3c(c2)nc(CN2CCC(c4cccc5c4OC(C)(c4ccc(Cl)cc4F)O5)CC2)n3C[C@@H]2CCO2)oc1=O` (stereo partly drawn) [Compound 220a, 5-[2-({4-[2-(4-chloro-2-fluorophenyl)-2-methyl-2H-1,3-benzodioxol-4-yl]piperidin-1-yl}methyl)-1-{[(2S)-oxetan-2-yl]methyl}-1H-1,3-benzodiazol-5-yl]-3-methyl-2,3-dihydro-1,3,4-oxadiazol-2-one] it is 2.8 nM. The figure for `CC1(c2ccc(Cl)cc2)Oc2cccc(C3CCN(Cc4nc5cc(-c6nnc(C(F)(F)F)[nH]6)ccc5n4CC4(C#N)CC4)CC3)c2O1` (stereo not shown) [Compound 446, 1-{[2-({4-[2-(4-chlorophenyl)-2-methyl-2H-1,3-benzodioxol-4-yl]piperidin-1-yl}methyl)-5-[5-(trifluoromethyl)-4H-1,2,4-triazol-3-yl]-1H-1,3-benzodiazol-1-yl]methyl}cyclopropane-1-carbonitrile] is 0.12 nM; for `Fc1cc(Cl)ccc1COc1cccc(C2CCN(Cc3nc4cc(-c5nnc[nH]5)ncc4n3C[C@@H]3CCO3)CC2)n1` [Compound 436a, 2-[(4-chloro-2-fluorophenyl)methoxy]-6-{1-[(3-{[(2S)-oxetan-2-yl]methyl}-6-(4H-1,2,4-triazol-3-yl)-3H-imidazo[4,5-c]pyridin-2-yl)methyl]piperidin-4-yl}pyridine] it is 0.91 nM; for `C[C@H]1CN(c2cccc(OCc3ccc(Cl)cc3F)n2)CCN1Cc1nc2cc(-c3nnc(C(F)(F)F)[nH]3)ncc2n1C[C@@H]1CCO1` [Compound 480a, (2S)-4-{6-[(4-chloro-2-fluorophenyl)methoxy]pyridin-2-yl}-2-methyl-1-[(3-{[(2S)-oxetan-2-yl]methyl}-6-[5-(trifluoromethyl)-4H-1,2,4-triazol-3-yl]-3H-imidazo[4,5-c]pyridin-2-yl)methyl]piperazine] it is 0.018 nM. To `CC1(c2ccc(C#N)cc2F)Oc2cccc(C3CCN(Cc4nc5cc(-c6nnc(C7CC7)[nH]6)cnc5n4C[C@@H]4CCO4)CC3)c2O1` (stereo partly drawn) [Compound 276a, 4-[4-(1-{[6-(5-cyclopropyl-4H-1,2,4-triazol-3-yl)-3-{[(2S)-oxetan-2-yl]methyl}-3H-imidazo[4,5-b]pyridin-2-yl]methyl}piperidin-4-yl)-2-methyl-2H-1,3-benzodioxol-2-yl]-3-fluorobenzonitrile] belongs 0.56 nM.

`Cc1nnc(-c2cc3nc(CN4CCC(c5cccc6c5OC[C@@H](c5ccc(Cl)cc5)O6)CC4)n(C[C@@H]4CCO4)c3cn2)[nH]1` [Compound 424a, 4-[(2R)-2-(4-chlorophenyl)-2,3-dihydro-1,4-benzodioxin-5-yl]-1-{[6-(5-methyl-4H-1,2,4-triazol-3-yl)-3-{[(2S)-oxetan-2-yl]methyl}-3H-imidazo[4,5-c]pyridin-2-yl]methyl}piperidine]: the concentration giving a half-maximal response (EC50) amounted to 0.13 nM.

`CC1(c2ccc(Cl)cn2)Oc2cccc(C3CCN(Cc4nc5cc(-c6noc(=O)[nH]6)cnc5n4C[C@@H]4CCO4)CC3)c2O1` (stereo partly drawn) [Compound 332a, 3-[2-({4-[2-(5-chloropyridin-2-yl)-2-methyl-2H-1,3-benzodioxol-4-yl]piperidin-1-yl}methyl)-3-{[(2S)-oxetan-2-yl]methyl}-3H-imidazo[4,5-b]pyridin-6-yl]-4,5-dihydro-1,2,4-oxadiazol-5-one] gave an EC50 of 1.6 nM. To `N#Cc1cccc(C(=O)Nc2ccc3c(c2)nc(CN2CCC(c4cccc(OCc5ccc(Cl)cc5F)n4)CC2)n3C[C@@H]2CCO2)c1` [Compound 169a, N-{2-[(4-{6-[(4-chloro-2-fluorophenyl)methoxy]pyridin-2-yl}piperidin-1-yl)methyl]-1-{[(2S)-oxetan-2-yl]methyl}-1H-1,3-benzodiazol-5-yl}-3-cyanobenzamide] belongs 0.92 nM. To `CC1(c2ccc(Cl)cc2F)Oc2cccc(C3CCN(Cc4nc5cc(-c6nnc(C(F)(F)F)[nH]6)cnc5n4C[C@@H]4CCO4)CC3)c2O1` (single isomer, unassigned) [Compound 224c] belongs 0.014 nM. The figure for `N#Cc1ccc(COc2cccc(C3=CCN(Cc4nc5cc(-c6nnc(C(F)(F)F)[nH]6)cnc5n4C[C@@H]4CCO4)CC3)c2)c(F)c1` [Compound 317a, 3-fluoro-4-[(3-{1-[(3-{[(2S)-oxetan-2-yl]methyl}-6-[5-(trifluoromethyl)-4H-1,2,4-triazol-3-yl]-3H-imidazo[4,5-b]pyridin-2-yl)methyl]-1,2,3,6-tetrahydropyridin-4-yl}phenoxy)methyl]benzonitrile] is 0.11 nM.

The EC50 is the midpoint of the concentration-response curve. Low values mean an effect from little substance, high ones a need for much substance.
